Laboratory results published in PubChem BioAssay (NCI).
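Five concentrations, 48 hours, 96-well plates. At the GI50, growth is halved. TGI: total growth inhibition.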

Assays:
Test in all cases: NCI-60 cell line screen, 48 h
HL-60(TB) leukemia = system: HL-60(TB) leukemia
CAKI-1 renal = system: CAKI-1 renal
ACHN renal = system: ACHN renal
NCI-H460 lung = system: NCI-H460 lung
HCC-2998 colon = system: HCC-2998 colon
UACC-257 melanoma = system: UACC-257 melanoma
PC-3 prostate = system: PC-3 prostate
NCI-H226 lung = system: NCI-H226 lung
MDA-MB-231 breast = system: MDA-MB-231 breast
HOP-92 NSCLC = system: HOP-92 NSCLC
786-0 renal = system: 786-0 renal
IGROV1 ovarian = system: IGROV1 ovarian
OVCAR-3 ovarian = system: OVCAR-3 ovarian
MCF7 breast = system: MCF7 breast
COLO 205 colon = system: COLO 205 colon
RPMI-8226 leukemia = system: RPMI-8226 leukemia
RXF 393 renal = system: RXF 393 renal
M14 melanoma = system: M14 melanoma
SNB-19 CNS = system: SNB-19 CNS
A498 renal = system: A498 renal
SF-268 CNS = system: SF-268 CNS
TK-10 renal = system: TK-10 renal
BT-549 breast = system: BT-549 breast
OVCAR-5 ovarian = system: OVCAR-5 ovarian
HS 578T breast = system: HS 578T breast
SW-620 colon = system: SW-620 colon
SF-539 CNS = system: SF-539 CNS
UACC-62 melanoma = system: UACC-62 melanoma
NCI-H23 lung = system: NCI-H23 lung
LOX IMVI melanoma = system: LOX IMVI melanoma
HCT-116 colon = system: HCT-116 colon
KM12 colon = system: KM12 colon
MDA-MB-435 = system: MDA-MB-435
UO-31 renal = system: UO-31 renal
SK-MEL-2 melanoma = system: SK-MEL-2 melanoma
HOP-62 NSCLC = system: HOP-62 NSCLC
EKVX NSCLC = system: EKVX NSCLC
OVCAR-4 ovarian = system: OVCAR-4 ovarian
A549 NSCLC = system: A549 NSCLC
SF-295 CNS = system: SF-295 CNS
OVCAR-8 ovarian = system: OVCAR-8 ovarian
T-47D breast = system: T-47D breast
K-562 leukemia = system: K-562 leukemia
HCT-15 colon = system: HCT-15 colon
MOLT-4 leukemia = system: MOLT-4 leukemia
SK-MEL-5 melanoma = system: SK-MEL-5 melanoma
U251 CNS = system: U251 CNS
HT29 colon = system: HT29 colon
SNB-75 CNS = system: SNB-75 CNS
NCI/ADR-RES ovarian = system: NCI/ADR-RES ovarian
CCRF-CEM leukemia = system: CCRF-CEM leukemia
SK-MEL-28 melanoma = system: SK-MEL-28 melanoma
NCI-H522 lung = system: NCI-H522 lung
DU-145 prostate = system: DU-145 prostate
SN12C renal = system: SN12C renal
MALME-3M melanoma = system: MALME-3M melanoma

## C=CC(=O)N1CC[C@H](n2nc(C#Cc3cc(OC)cc(OC)c3)c3c(N)ncnc32)C1
HL-60(TB) leukemia
  GI50: 6.23 µM
  TGI: 70.4 µM
CAKI-1 renal
  GI50: 7.06 µM
  TGI: > 100 µM
ACHN renal
  GI50: 3.76 µM
  TGI: > 100 µM
NCI-H460 lung
  GI50: 9.97 µM
  TGI: > 100 µM
HCC-2998 colon
  GI50: 17.2 µM
  TGI: > 100 µM
UACC-257 melanoma
  GI50: 10.8 µM
  TGI: > 100 µM
PC-3 prostate
  GI50: 11.3 µM
  TGI: > 100 µM
NCI-H226 lung
  GI50: 6.42 µM
  TGI: > 100 µM
MDA-MB-231 breast
  GI50: 4.07 µM
  TGI: > 100 µM
HOP-92 NSCLC
  GI50: 1.84 µM
  TGI: 9.23 µM
786-0 renal
  GI50: 2.24 µM
  TGI: > 100 µM
IGROV1 ovarian
  GI50: 2.88 µM
  TGI: > 100 µM
OVCAR-3 ovarian
  GI50: 4.13 µM
  TGI: > 100 µM
MCF7 breast
  GI50: 3.78 µM
  TGI: > 100 µM
COLO 205 colon
  GI50: 15.8 µM
  TGI: > 100 µM
RPMI-8226 leukemia
  GI50: 2.45 µM
  TGI: 33.3 µM
RXF 393 renal
  GI50: 1.06 µM
  TGI: 4.48 µM
M14 melanoma
  GI50: 15.3 µM
  TGI: > 100 µM
SNB-19 CNS
  GI50: 7.66 µM
  TGI: > 100 µM
A498 renal
  TGI: 1.6 µM
SF-268 CNS
  GI50: 4.19 µM
  TGI: > 100 µM
TK-10 renal
  GI50: 4.03 µM
  TGI: > 100 µM
BT-549 breast
  GI50: 1.05 µM
  TGI: 9.56 µM
OVCAR-5 ovarian
  GI50: 62.3 µM
  TGI: > 100 µM
HS 578T breast
  GI50: 1.71 µM
  TGI: 9.82 µM
SW-620 colon
  GI50: 15 µM
  TGI: > 100 µM
SF-539 CNS
  GI50: 2.6 µM
  TGI: 65.9 µM
UACC-62 melanoma
  GI50: 6.95 µM
  TGI: > 100 µM
NCI-H23 lung
  GI50: 17.5 µM
  TGI: > 100 µM
LOX IMVI melanoma
  GI50: 5.72 µM
  TGI: > 100 µM
HCT-116 colon
  GI50: 6.04 µM
  TGI: > 100 µM
KM12 colon
  GI50: 11.2 µM
  TGI: > 100 µM
MDA-MB-435
  GI50: 10.6 µM
  TGI: > 100 µM
UO-31 renal
  GI50: 1.32 µM
  TGI: > 100 µM
SK-MEL-2 melanoma
  GI50: 8.49 µM
  TGI: 52.1 µM
HOP-62 NSCLC
  GI50: 5.43 µM
  TGI: > 100 µM
EKVX NSCLC
  GI50: 30.7 µM
  TGI: > 100 µM
OVCAR-4 ovarian
  GI50: 3.47 µM
  TGI: > 100 µM
A549 NSCLC
  GI50: 9.78 µM
  TGI: > 100 µM
SF-295 CNS
  GI50: 15.5 µM
  TGI: > 100 µM
OVCAR-8 ovarian
  GI50: 8.36 µM
  TGI: > 100 µM
T-47D breast
  GI50: 5.22 µM
  TGI: > 100 µM
K-562 leukemia
  GI50: 13.2 µM
  TGI: > 100 µM
HCT-15 colon
  GI50: 5.53 µM
  TGI: > 100 µM
MOLT-4 leukemia
  GI50: 5.02 µM
  TGI: 69.3 µM
SK-MEL-5 melanoma
  GI50: 9.57 µM
  TGI: 67.8 µM
U251 CNS
  GI50: 6.38 µM
  TGI: > 100 µM
HT29 colon
  GI50: 13.9 µM
  TGI: > 100 µM
SNB-75 CNS
  GI50: 0.343 µM
  TGI: 6.91 µM
NCI/ADR-RES ovarian
  GI50: 12.7 µM
  TGI: > 100 µM
CCRF-CEM leukemia
  GI50: 4.57 µM
  TGI: > 100 µM
SK-MEL-28 melanoma
  GI50: 21.9 µM
  TGI: > 100 µM
NCI-H522 lung
  GI50: 7.56 µM
  TGI: 37.9 µM
DU-145 prostate
  GI50: 7.56 µM
  TGI: > 100 µM
SN12C renal
  GI50: 4.43 µM
  TGI: > 100 µM
MALME-3M melanoma
  GI50: 15.6 µM
  TGI: > 100 µM
